# Measurements reported in patent US10435396B2, “2-substituted indazoles, methods for producing same, pharmaceutical preparations that contain same, and use of same to produce drugs” (Bayer Pharma Aktiengesellschaft, priority 2016, dated 2019).
# Tests used:
# human IRAK4 = human IRAK4 (Homo sapiens (Human), UniProt Q9NWZ3); assay: IRAK4 kinase assay (IRAK4 TR-FRET assay); type: biochemical; settings: 1 mM ATP
# Procedure: The IRAK4-inhibitory activity of the substances according to the invention was measured in the IRAK4 TR-FRET assay (TR-FRET=Time Resolved Fluorescence Resonance Energy Transfer) described hereinafter.
# Recombinant fusion protein from N-terminal GST (glutathione S-transferase) and human IRAK4, expressed in baculovirus-infected insect cells (Hi5, BTI-TN-5B1-4, cell line purchased from Invitrogen, catalogue No. B855-02) and purified via affinity chromatography, was used as enzyme. The substrate used for the kinase reaction was the biotinylated peptide biotin-Ahx-[…] (C-terminus in amide form) which can be purchased, for example, from Biosyntan GmbH (Berlin-Buch).
# For the assay, 11 different concentrations in the range from 20 μM to 0.073 nM were prepared from a 2 mM solution of the test substance in DMSO. 50 nl of the respective solution were pipetted into a black low-volume 384-well microtitre plate (Greiner Bio-One, Frickenhausen, Germany), 2 μl of a solution of IRAK4 in assay buffer [50 mM HEPES pH 7.5, 5 mM MgCl2, 1.0 mM dithiothreitol, 30 μM activated sodium orthovanadate, 0.1% (w/v) of bovine gamma-globulin (BGG) 0.04% (v/v) nonidet-P40 (Sigma)] were added and the mixture was incubated for 15 min to allow prebinding of the substances to the enzyme prior to the kinase reaction. The kinase reaction was then started by addition of 3 μl of a solution of adenosine triphosphate (ATP, 1.67 mM=final concentration in 5 μl of assay volume: 1 mM) and peptide substrate (0.83 μM=final concentration in 5 μl assay volume: 0.5 μM) in assay buffer, and the resulting mixture was incubated at 22° C. for the reaction time of 45 min. The concentration of the IRAK4 was adjusted to the respective activity of the enzyme and set such that the assay was carried out in the linear range. Typical concentrations were in the order of about 0.2 nM. The reaction was stopped by addition of 5 μl of a solution of TR-FRET detection reagents [0.1 μM streptavidin-XL665 (Cisbio Bioassays; France, catalogue No. 610SAXLG)] and 1.5 nM anti-phosphoserine antibody [Merck Millipore, “STK Antibody”, catalogue No. 35-002] and 0.6 nM LANCE EU-W1024-labelled anti-mouse-IgG antibody (Perkin-Elmer, product No. AD0077; alternatively, it is possible to use a terbium cryptate-labelled anti-mouse-IgG antibody from Cisbio Bioassays) in aqueous EDTA solution (100 mM EDTA, 0.4% [w/v] bovine serum albumin [BSA] in 25 mM HEPES pH 7.5).
# The resulting mixture was incubated at 22° C. for 1 h to allow formation of a complex of the biotinylated phosphorylated substrate and the detection reagents. The amount of the phosphorylated substrate was then evaluated by measuring the resonance energy transfer from europium chelate-labelled anti-mouse-IgG antibody to streptavidin-XL665. To this end, the fluorescence emissions at 620 nm and 665 nm were measured after excitation at 350 nm in a TR-FRET measuring instrument, for example a Rubystar (BMG Labtechnologies, Offenburg, Germany) or a Viewlux (Perkin-Elmer). The ratio of the emissions at 665 nm and 622 nm was taken as a measure of the amount of phosphorylated substrate. The data were normalized (enzyme reaction without test substance=0% inhibition; all other assay components but no enzyme=100% inhibition). Typically, the test substances were tested on the same microtitre plates at 11 different concentrations in the range from 20 μM to 0.073 nM (20 μM, 5.7 μM, 1.6 μM, 0.47 μM, 0.13 μM, 38 nM, 11 nM, 3.1 nM, 0.89 nM, 0.25 nM and 0.073 nM). The dilution series were prepared prior to the assay (2 mM to 7.3 nM in 100% DMSO) by serial dilutions. The IC50 values were calculated using a 4-parameter fit.
# [1] = system: secretion of TNF-α in THP-1 cells; assay: TNF-α secretion in THP-1 cells (LPS-triggered); type: cell-based, human; settings: Homo sapiens, THP-1, 17 h, LPS 0.05 μg/ml, read-out: IC50 with respect to the secretion of TNF-α in THP-1 cells
# Procedure: TNF-α Secretion in THP-1 Cells
# With the aid of this test, it is possible to test substances for their ability to inhibit secretion of TNF-α (tumour necrosis factor alpha) in THP-1 cells (human monocytic acute leukaemia cell line). TNF-α is a cytokine involved in inflammatory processes. In this test, TNF-α secretion is triggered by incubation with bacterial lipopolysaccharide (LPS).
# THP-1 cells are kept in continuous suspension cell culture [RPMI 1460 medium with L-Glutamax (Gibco, Cat No. 61870-044) supplemented with foetal calf serum (FCS) 10% (Invitrogen, Cat No. 10082-147), 1% penicillin/streptomycin (Gibco BRL, Cat No. 15140-114)] and should not exceed a cell concentration of 1×10^6 cells/ml. The assay is carried out in cell culture medium (RPMI 1460 medium with L-Glutamax supplemented with FCS 10%).
# In each case 2-2.5 μl of the cell suspension (corresponds to 4000 cells) per well were dispensed into a 384-well test plate (Greiner, Cat No. 784076), in each of which 40-50 nl substance had been dissolved in 100% DMSO. This was done using […] in the range from 20 μM to 0.073 nM for each substance. The cells were incubated at room temperature for 15 min. 2-2.5 μl of 0.1 μg/ml LPS (Sigma, Escherichia coli 055:B5, Cat. No. L5418) dissolved in cell culture medium (final concentration 0.05 μg/ml) were then dispensed into each well. As neutral control, cells were treated with 0.05 μg/ml LPS and 1% DMSO and, as inhibitor control, with 1% DMSO only.
# The plates were centrifuged at 80 g for 30 s and incubated at 37° C., 5% CO2 and 95% atmospheric humidity for 17 h. The amount of TNF-α was determined using the TNF-alpha HTRF Detection Kit (Cisbio, Cat No. 62TNFPEB/C). To this end, 2 μl of the detection solution in each case, consisting of anti-TNF-α-XL665 conjugate and anti-TNF-α-cryptate conjugate dissolved in the reconstitution buffer in accordance with the manufacturer's instructions, were added for the HTRF (Homogeneous Time-Resolved Fluorescence) test. After the addition, the mixture was incubated either at room temperature for 3 h or at 4° C. overnight. The signals were then read at 620/665 nm using an HTRF-enabled measuring instrument such as the BMG PheraStar.
# The activity of the substances is expressed as the ratio between neutral and inhibitor control in percent. The IC50 values were calculated using a 4-parameter fit.
# Chain of human IRAK4 (Q9NWZ3 whole entry): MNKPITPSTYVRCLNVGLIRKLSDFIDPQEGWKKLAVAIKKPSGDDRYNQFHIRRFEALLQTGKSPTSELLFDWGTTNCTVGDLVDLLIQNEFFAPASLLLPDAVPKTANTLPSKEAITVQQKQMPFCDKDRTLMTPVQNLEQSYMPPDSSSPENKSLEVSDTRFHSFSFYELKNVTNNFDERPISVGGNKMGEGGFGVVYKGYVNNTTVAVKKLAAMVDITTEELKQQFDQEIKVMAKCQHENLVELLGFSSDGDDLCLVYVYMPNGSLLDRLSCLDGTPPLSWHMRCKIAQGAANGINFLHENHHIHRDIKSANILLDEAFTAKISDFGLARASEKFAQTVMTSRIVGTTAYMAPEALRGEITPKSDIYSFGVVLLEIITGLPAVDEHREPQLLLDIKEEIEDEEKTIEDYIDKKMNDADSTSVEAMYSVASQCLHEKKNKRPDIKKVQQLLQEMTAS
IC50 (human IRAK4),IC50 [1],Compound
7 nM,750 nM,"COc1cc2nn(C3CCN(CC(F)(F)F)CC3)cc2cc1NC(=O)c1cccc(C(F)(F)F)n1 [Example 3, N-{6-Methoxy-2-[1-(2,2,2-trifluoroethyl)piperidin-4-yl]-2H-indazol-5-yl}-6-(trifluoromethyl)pyridine-2-carboxamide]"
6 nM,230 nM,"CC(C)(O)c1cc2nn(C3CCOCC3)cc2cc1NC(=O)c1cccc(C(F)(F)F)n1 [Example 34, N-[6-(2-Hydroxypropan-2-yl)-2-(tetrahydro-2H-pyran-4-yl)-2H-indazol-5-yl]-6-(trifluoromethyl)pyridine-2-carboxamide]"
9 nM,190 nM,"COc1cc2nn([C@H]3C[C@@H]4C[C@H]3CN4C)cc2cc1NC(=O)c1cccc(C(F)(F)F)n1 (relative stereo) [Example 19, rel-N-{6-Methoxy-2-[(1S,4S,5S)-2-methyl-2-azabicyclo[2.2.1]hept-5-yl]-2H-indazol-5-yl}-6-(trifluoromethyl)pyridine-2-carboxamide]"
3780 nM,,"COc1cc2nn(C3CCOCC3)cc2cc1NC(=O)c1nc(C)no1 [Example 49, N-[6-Methoxy-2-(tetrahydro-2H-pyran-4-yl)-2H-indazol-5-yl]-3-methyl-1,2,4-oxadiazole-5-carboxamide]"
16 nM,,"CC(C)(O)c1cc2nn([C@H]3CCS(=O)(=O)C3)cc2cc1NC(=O)c1cccc(C(F)(F)F)n1 [Example 41, N-{2-[(3S)-1,1-Dioxidotetrahydrothiophen-3-yl]-6-(2-hydroxypropan-2-yl)-2H-indazol-5-yl}-6-(trifluoromethyl)pyridine-2-carboxamide]"
4 nM,,"CC(C)(O)CCN1CCC(n2cc3cc(NC(=O)c4cccc(C(F)(F)F)n4)c(C(N)=O)cc3n2)CC1 [Example 56, 2-[1-(3-Hydroxy-3-methylbutyl)piperidin-4-yl]-5-({[6-(trifluoromethyl)pyridin-2-yl]carbonyl}amino)-2H-indazole-6-carboxamide]"
8 nM,520 nM,"COc1cc2nn(C3CCN(S(=O)(=O)NC(C)=O)CC3)cc2cc1NC(=O)c1cccc(C(F)(F)F)n1 [Example 8, N-{2-[1-(Acetylsulphamoyl)piperidin-4-yl]-6-methoxy-2H-indazol-5-yl}-6-(trifluoromethyl)pyridine-2-carboxamide]"
75 nM,,"O=C(Nc1cc2cn(C3CCNCC3)nc2cc1C(=O)O)c1cccc(C(F)(F)F)n1 [Example 54, 2-(Piperidin-4-yl)-5-({[6-(trifluoromethyl)pyridin-2-yl]carbonyl}amino)-2H-indazole-6-carboxylic Acid]"
1 nM,,"COc1cc2nn(C3CCN(CCN(C)C)CC3)cc2cc1NC(=O)c1cccc(C(F)(F)F)n1 [Example 9, N-(2-{1-[2-(Dimethylamino)ethyl]piperidin-4-yl}-6-methoxy-2H-indazol-5-yl)-6-(trifluoromethyl)pyridine-2-carboxamide]"
2 nM,,"COc1cc2nn(C3CCN(C4CCN(C)CC4)CC3)cc2cc1NC(=O)c1cccc(C(F)(F)F)n1 [Example 6, N-[6-Methoxy-2-(1′-methyl-1,4′-bipiperidin-4-yl)-2H-indazol-5-yl]-6-(trifluoromethyl)pyridine-2-carboxamide]"
1 nM,,"NC(=O)c1cc2nn(C3CCNCC3)cc2cc1NC(=O)c1cccc(C(F)(F)F)n1 [Example 53, 2-(Piperidin-4-yl)-5-({[6-(trifluoromethyl)pyridin-2-yl]carbonyl}amino)-2H-indazole-6-carboxamide]"
496 nM,,"O=C(Nc1cc2cn(C3CCOCC3)nc2cc1Cl)c1nc(C(F)(F)F)cs1 [Example 50, N-[6-Chloro-2-(tetrahydro-2H-pyran-4-yl)-2H-indazol-5-yl]-4-(trifluoromethyl)-1,3-thiazole-2-carboxamide]"
2 nM,,"CN1CCC(n2cc3cc(NC(=O)c4cccc(C(F)(F)F)n4)c(C(N)=O)cc3n2)CC1 [Example 57, 2-(1-Methylpiperidin-4-yl)-5-({[6-(trifluoromethyl)pyridin-2-yl]carbonyl}amino)-2H-indazole-6-carboxamide]"
65 nM,,"COc1cc2nn(C3CCOCC3)cc2cc1NC(=O)c1nc(C(F)(F)F)cs1 [Example 47, N-[6-Methoxy-2-(tetrahydro-2H-pyran-4-yl)-2H-indazol-5-yl]-4-(trifluoromethyl)-1,3-thiazole-2-carboxamide]"
691 nM,,"COc1cc2nn(C3CCOCC3)cc2cc1NC(=O)c1nc(-c2ccncc2)no1 [Example 48, N-[6-Methoxy-2-(tetrahydro-2H-pyran-4-yl)-2H-indazol-5-yl]-3-(pyridin-4-yl)-1,2,4-oxadiazole-5-carboxamide]"
6 nM,,"COc1cc2nn(C3CCOCC3)cc2cc1NC(=O)c1ccn(C(F)F)n1 [Example 51, 1-(Difluoromethyl)-N-[6-methoxy-2-(tetrahydro-2H-pyran-4-yl)-2H-indazol-5-yl]-1H-pyrazole-3-carboxamide]"
3 nM,,"COc1cc2nn(C3CCS(=O)(=O)CC3)cc2cc1NC(=O)c1cccc(C(F)(F)F)n1 [Example 11, N-[2-(1,1-Dioxidotetrahydro-2H-thiopyran-4-yl)-6-methoxy-2H-indazol-5-yl]-6-(trifluoromethyl)pyridine-2-carboxamide]"
1 nM,,"COC(=O)c1cc2nn(C3CCN(C)CC3)cc2cc1NC(=O)c1cccc(C(F)(F)F)n1 [Example 55, Methyl 2-(1-methylpiperidin-4-yl)-5-({[6-(trifluoromethyl)pyridin-2-yl]carbonyl}amino)-2H-indazole-6-carboxylate]"
2 nM,,"COCCN1CCC(n2cc3cc(NC(=O)c4cccc(C(F)(F)F)n4)c(OC)cc3n2)CC1 [Example 58, N-{6-Methoxy-2-[1-(2-methoxyethyl)piperidin-4-yl]-2H-indazol-5-yl}-6-(trifluoromethyl)pyridine-2-carboxamide]"
